According to patent US9636347B2, “Sustained release formulations for the treatment of intraocular pressure or glaucoma” (Icon Bioscience, Inc., priority 2013, dated 2017):

Key:
[1] = cited from earlier work
[2] = Solubility of latanoprost; type: physicochemical; settings: 1%, 2% or 4% (w/w %) formulations, clear solution
Description: Latanoprost and other prostaglandin analogs are available commercially, for example, from Cayman Chemical (Ann Arbor, Mich.).
Liquid formulations of latanoprost and benzyl benzoate were made by weighing each component and mixing them together. Latanoprost is soluble in benzyl benzoate, yielding a clear solution. The formulations were either 1%, 2%, or 4% (w/w %) latanoprost.

CC(C)OC(=O)CCC/C=C\C[C@@H]1[C@@H](CC[C@@H](O)CCc2ccccc2)[C@H](O)C[C@@H]1O [Latanoprost, isopropyl-(Z)7[(1R,2R,3R,5S)3,5-dihydroxy-2-[(3R)-3-hydroxy-5-phenylpentyl]cyclopentyl]-5-heptenoate]
solubility in acetone, ethanol, ethyl acetate, isopropanol, methanol, and octanol ([1]; acetone, ethanol, ethyl acetate, isopropanol, methanol, octanol): freely soluble
solubility in acetonitrile ([1]; acetonitrile): very soluble
solubility in water ([1]; water): practically insoluble
solubility in benzyl benzoate [2]: soluble
